Reference: PMC12775434, “Ultra-large virtual screening unveils potent agonists of the neuromodulatory orphan receptor GPR139” (Nature Communications, 2025)
Where “and” joins values, the source holds several entries; their conditions need not be identical. Equal entries are not always repeated.

Tests used:
GPR139 [1] = target: T1, GPR139 (Homo sapiens, UniProt Q6DWJ6); test: Inositol monophosphate (IP1) accumulation assay, GPR139-CHOk1; format: cell-based; conditions: for IP1 response (% of Cmp 1a): replicate experiments; for EC50: read-out: pEC50 IP1 (converted)
T1 sequence (Q6DWJ6 1-353): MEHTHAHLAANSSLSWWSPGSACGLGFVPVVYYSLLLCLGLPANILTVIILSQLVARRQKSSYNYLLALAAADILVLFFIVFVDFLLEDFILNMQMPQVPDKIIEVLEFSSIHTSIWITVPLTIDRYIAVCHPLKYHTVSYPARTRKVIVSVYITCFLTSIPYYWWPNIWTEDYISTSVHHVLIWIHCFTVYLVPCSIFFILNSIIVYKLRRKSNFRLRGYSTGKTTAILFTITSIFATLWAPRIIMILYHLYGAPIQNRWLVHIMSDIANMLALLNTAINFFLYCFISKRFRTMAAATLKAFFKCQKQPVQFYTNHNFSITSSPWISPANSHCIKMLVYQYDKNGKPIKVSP
Protocol: Primary screening and pharmacological characterization of compounds were performed using a CHO-K1 cell line that stably expresses human GPR139 (GPR139-CHOk1). The GPR139-CHOk1 cell line was kindly provided by H. Lundbeck A/S, Denmark[24]. GPR139-CHOk1 cells were grown in Ham’s F-12 Kaighn’s Modification Medium (ThermoFisher #21127030) supplemented with 10% dialyzed fetal bovine serum (US origin, ThermoFisher #26400044), 100 units/mL Penicillin-Streptomycin (ThermoFisher #15140122), and 1 mg/mL Geneticin (ThermoFisher #11811031). […] M1R-CHOk1 cells were purchased from The Missouri S&T cDNA Resource Center (#CEM100TN00). M1R-CHOk1 cells were grown in Ham’s F12 Medium (ThermoFisher #21765029) supplemented with 10% fetal bovine serum (Brazilian origin, ThermoFisher #10270106), 100 units/mL Penicillin-Streptomycin, and 0.25 mg/mL Geneticin. HEK293A cells transiently transfected with GPR139 were used for additional pharmacological assessment of signaling pathways activated by GPR139. HEK239A cells were generously provided by Dr. Asuka Inoue, Tohoku University, Japan. HEK293A cells were grown in Dulbecco’s Modified Eagle Medium (ThermoFisher #31966047) supplemented with 10% dialyzed fetal bovine serum and 100 units/mL Penicillin-Streptomycin. Cell lines were maintained at 37 °C in humidified incubator equilibrated with 5% CO2.
HTRF IP-One Gq kit (Cisbio #62IPAPEC) was used to detect the accumulation of inositol monophosphate (IP1) as described in the work by Shehata et al.[26]. GPR139-CHOk1 cells were dissociated and resuspended in HEPES buffer. 50,000 cells in 5 µL and 5 µL test compounds diluted from DMSO stocks (final DMSO concentration of maximally 0.3%) in HEPES buffer supplemented with 40 mM LiCl were mixed in each well of white 384-well OptiPlate (PerkinElmer #6007290). The cells were incubated for 1 h at 37 °C. Then, 10 µL detection reagent composed of 2.5% Eu3 + -anti-IP1 antibody and 2.5% IP1-d2 diluted in lysis buffer was added, and the cells were incubated for 1 h at room temperature before measurements. Measurements were performed on EnVision Multimode Plate Reader (PerkinElmer) using excitation light of 340 nm and emission light of 615 nm and 665 nm. The time resolved-fluorescence resonance energy transfer (TR-FRET) 665 nm/615 nm ratio, which is inversely proportional to the IP1 accumulation, was used to determine the IP1 response.
Pharmacological data and statistical analyses were performed in GraphPad Prism v9–10 (Graphpad Software Inc., San Diego, CA), which are also specifically described in the figure and table legends. The functional assay responses were normalized to buffer (0%) and Lundbeck Cmp 1a or JNJ-63533054 (100%), for Ca^2+ and IP1 experiments in the GPR139-CHOk1 stable cell line or Ca^2+, G protein activation, and arrestin-3 recruitment experiments in the HEK293A cells transiently transfected with GPR139, respectively. Data are from at least three independent experiments, unless stated otherwise. Concentration-response curves were fitted applying non-linear regression using the log (agonist) versus response model with variable slope. ANOVA was applied for comparing results and determining statistical significance. Comparison of responses to the reference was performed using one-way ANOVA with Dunnett’s multiple comparisons test at significance threshold of p < 0.05. Comparison of responses across assays and ligands was performed using two-way ANOVA with Tukey’s multiple comparisons test at a significance threshold of p < 0.05.

GPR139 [2] = target: T1, GPR139; test: Ca2+ mobilization assay, antagonist mode (EC80 800 nM Lundbeck Cmp 1a after 20 min preincubation), GPR139-CHOk1; format: cell-based; conditions: individual replicates (Supplementary Figure 1)
Outline: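 Fluo-4-loaded GPR139-CHOk1 cells in HEPES-buffered HBSS (pH 7.4, 2.5 mM probenecid) given test compounds at 10 µM, then after 20 min challenged with 800 nM Lundbeck Cmp 1a (EC80). Calcium fluorescence read at 37 °C, 485/525 nm.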

SMILES | IP1 response (% of Cmp 1a) (GPR139 [1]; log [Compound] M -4.5) | IP1 response (% of Cmp 1a) (GPR139 [1]; log [Compound] M -5.0) | IP1 response (% of Cmp 1a) (GPR139 [1]; log [Compound] M -5.5) | IP1 response (% of Cmp 1a) (GPR139 [1]; log [Compound] M -6.0) | IP1 response (% of Cmp 1a) (GPR139 [1]; log [Compound] M -6.5) | IP1 response (% of Cmp 1a) (GPR139 [1]; log [Compound] M -7.0) | IP1 response (% of Cmp 1a) (GPR139 [1]; log [Compound] M -7.5) | IP1 response (% of Cmp 1a) (GPR139 [1]; log [Compound] M -8.0) | EC50 (GPR139 [1]) | Ca2+ signal (% of Cmp 1a) (GPR139 [2])
Cc1noc(C(C)NC(=O)Nc2cccc(-c3ccccc3)c2)n1 (stereo not drawn) [Compound 3, CC(NC(=O)NC=1C=CC=C(C1)C=2C=CC=CC2)C3=NC(C)=NO3] | 41 % of Cmp 1a and 46 % of Cmp 1a and 42 % of Cmp 1a | 22 % of Cmp 1a and 29 % of Cmp 1a and 28 % of Cmp 1a | 8 % of Cmp 1a and 12 % of Cmp 1a and 10 % of Cmp 1a | 0.417 % of Cmp 1a and 2.14 % of Cmp 1a and 6 % of Cmp 1a | -2.63 % of Cmp 1a and 1.42 % of Cmp 1a and -1.19 % of Cmp 1a | -0.0724 % of Cmp 1a and 2 % of Cmp 1a and 0.325 % of Cmp 1a | -1.11 % of Cmp 1a and -1.52 % of Cmp 1a and 2 % of Cmp 1a | -0.434 % of Cmp 1a and 0.295 % of Cmp 1a and 1.29 % of Cmp 1a | 50.1 µM | 29.8327 % of Cmp 1a and 24.7661 % of Cmp 1a and 29.9717 % of Cmp 1a
Cc1noc(CNC(=O)C2(C)CCCCN2C(=O)c2ccccc2)n1 (stereo not drawn) [Compound 4, CC1=NOC(CNC(=O)C2(C)CCCCN2C(=O)C=3C=CC=CC3)=N1] | 109 % of Cmp 1a and 91 % of Cmp 1a and 86 % of Cmp 1a | 40 % of Cmp 1a and 36 % of Cmp 1a and 37 % of Cmp 1a | 13 % of Cmp 1a and 11 % of Cmp 1a and 14 % of Cmp 1a | 6.46 % of Cmp 1a and 2.74 % of Cmp 1a and 2.36 % of Cmp 1a | -0.931 % of Cmp 1a and -1.18 % of Cmp 1a and 0.0496 % of Cmp 1a | 3.23 % of Cmp 1a and -0.893 % of Cmp 1a and -2.41 % of Cmp 1a | 2.42 % of Cmp 1a and -4 % of Cmp 1a and -2.57 % of Cmp 1a | 1.1 % of Cmp 1a and -0.196 % of Cmp 1a and -1.07 % of Cmp 1a | 12.6 µM | 35.6047 % of Cmp 1a and 34.6013 % of Cmp 1a and 39.6569 % of Cmp 1a
CC(NC(=O)Cn1cncc(-c2ccccc2)c1=O)c1ccccc1 (stereo not drawn) [Compound 5, C[C@@H](NC(=O)CN1C=NC=C(C=2C=CC=CC2)C1=O)C=3C=CC=CC3] | 68 % of Cmp 1a and 53 % of Cmp 1a and 56 % of Cmp 1a | 33 % of Cmp 1a and 17 % of Cmp 1a and 31 % of Cmp 1a | 13 % of Cmp 1a (2×) and 9 % of Cmp 1a | 7 % of Cmp 1a and -0.0762 % of Cmp 1a and 3.67 % of Cmp 1a | -1.74 % of Cmp 1a and -4 % of Cmp 1a and 0.455 % of Cmp 1a | 2.62 % of Cmp 1a and -1.59 % of Cmp 1a and -2.51 % of Cmp 1a | 0.67 % of Cmp 1a and -2.55 % of Cmp 1a and -3 % of Cmp 1a | -0.409 % of Cmp 1a and -3 % of Cmp 1a and -0.447 % of Cmp 1a | 25.1 µM | 38.6236 % of Cmp 1a and 37.7276 % of Cmp 1a and 30.4652 % of Cmp 1a
